Source: patent publication US6683029B1, “Halopyrimidines” (Bayer Aktiengesellschaft, priority 1999, dated 2004)

Legend:
[1] = logP by HPLC (EEC Directive 79/831 Annex V. A8)
Plutella = Plutella test/synthetic feed; format: in vivo; details: Plutella larvae on treated synthetic feed; concentration and time not stated
Description: Plutella Test/Synthetic Feed [table] […] A stated amount of the preparation of active compound of the desired concentration is pipetted onto a standardized amount of synthetic feed. After the methanol has evaporated, a film box lid covered with about 100 Plutella eggs is placed onto each cavity. The freshly hatched larvae migrate onto the treated synthetic feed. After the desired period of time, the kill in % is determined. 100% means that all animals have been killed; 0% means that none of the animals have been killed.

## CON=C(C(=O)OC)c1ccccc1Oc1ncnc(Oc2cccc(F)c2)c1F [Example 1, Methyl 2-{2-[6-(3-fluorophenoxy)-5-fluoro-pyrimidin-4-yloxy]-phenyl}-2-methoxyiminoacetate]
[1]
  chromatographic logP: 3.46

## CON=C(C(=O)OC)c1ccccc1Oc1ncnc(Oc2cc(Cl)ccc2Cl)c1F [Example 10]
Plutella
  activity (kill): good activity

## CCSCc1ccccc1Oc1ncnc(Oc2ccccc2C(=NOC)C(=O)OC)c1F [Example 16]
[1]; HPLC, gradient method, acetonitrile/0.1% aqueous phosphoric acid
  logP: 3.97
